Series [1] relates to human ENT1, ENT2, CNT1 and CNT3. As to conditions: literature (Mackey et al.; Fang et al.); cited from earlier work.
The target in a further series is T1, CNT2 (Homo sapiens, UniProt O43868).
T1 sequence (O43868 1-658): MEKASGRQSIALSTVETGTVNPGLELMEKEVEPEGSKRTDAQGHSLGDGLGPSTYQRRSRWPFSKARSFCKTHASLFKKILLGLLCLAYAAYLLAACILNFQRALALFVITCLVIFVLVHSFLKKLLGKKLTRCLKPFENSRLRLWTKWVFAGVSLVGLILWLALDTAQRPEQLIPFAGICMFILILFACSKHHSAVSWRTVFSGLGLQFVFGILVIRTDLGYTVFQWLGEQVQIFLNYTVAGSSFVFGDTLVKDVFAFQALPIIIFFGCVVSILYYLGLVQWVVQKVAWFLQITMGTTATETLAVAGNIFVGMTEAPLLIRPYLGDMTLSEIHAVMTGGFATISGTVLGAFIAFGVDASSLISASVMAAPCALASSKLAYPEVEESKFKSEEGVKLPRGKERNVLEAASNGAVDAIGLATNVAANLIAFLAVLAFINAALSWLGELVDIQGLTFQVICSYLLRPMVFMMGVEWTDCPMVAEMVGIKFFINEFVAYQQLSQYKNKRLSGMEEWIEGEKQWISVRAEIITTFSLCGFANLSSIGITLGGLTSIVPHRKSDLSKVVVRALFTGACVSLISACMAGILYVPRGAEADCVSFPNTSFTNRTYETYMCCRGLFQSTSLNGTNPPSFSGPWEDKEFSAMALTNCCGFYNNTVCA
As to conditions: literature (Mackey et al.; Fang et al.); cited from earlier work.

A short description of series [2]: Pharmacokinetics and intestinal exposure to gemcitabine after oral dosing in mice. The series is classed as in vivo. As to conditions: male, mouse, blood, po, 20 mg-eq. gemcitabine/kg; read-out: Fpo (oral bioavailability). As for the experimental part:
Blood samples (0.5 mL) were obtained by cardiac puncture from 4 animals at each time point (1, 5, 10, 15, 30, 45 minutes and 1, 2, 4, 6 and 24 hr post-dosing). Samples were immediately transferred to tubes containing 10 μL of tetrahydrouridine (50 μg/mL in 50% methanol/water) to prevent further deamination and aliquots (100 μL) were quenched with a solution of 1% w/w formic acid in acetonitrile (300 μL). Quenched blood samples were stored at −80° C. until analyzed. Following collection of blood samples, the small intestine of each animal was removed, rinsed with saline, scraped to remove the mucosal layer, and the mucosal tissue was transferred to a pre-weighed vial containing 10 μL of tetrahydrouridine (50 μg/mL in 50% methanol/water). Sample vials were snap frozen in dry ice/acetone and stored at −80° C. until analyzed. Mucosal tissue samples were diluted 1:10 in water and 100 μL of the resulting sample was added to 400 μL of methanol.

The conditions of series [3]: intravenous infusion for up to 12 hours; cited from earlier work.

What is called bioavailability is the share of a dose that reaches the circulation, judged against a reference dose that is usually intravenous. For the compound `Nc1ccn([C@@H]2O[C@H](CO)[C@@H](O)C2(F)F)c(=O)n1` [gemcitabine, 2′,2′-difluoro-2′-deoxycytidine], the “Transport by human ENT1, ENT2, CNT1 and CNT3” value in series [1] is “transported by human ENT1, ENT2, CNT1 and CNT3”. For the same compound, the “Transport by CNT2” value on CNT2 is given as “not the purine-selective concentrative transporter CNT2”. Further, the bioavailability in series [2] came to 20%. Also, the “Dose reported to be tolerated in patients” value in series [3] is given as 10 mg/m^2/min.

Values taken from patent US7265096B2 (XenoPort, Inc., priority 2002, dated 2007).
